Measurements: patent US20010011075A1, “5'-SUBSTITUTED-RIBOFURANOSYL BENZIMIDAZOLES AS ANTIVIRAL AGENTS” (priority 1999, published 2001)
pIC50: −log10 of the molar value. Where two headings read alike, the source gives them in different places.

How the values were obtained:
HFF cells = experiment: Visual cytotoxicity in stationary HFF cells at time of plaque enumeration; type: cell-based, human; settings: visual cytotoxicity on HFF cells at time of HCMV plaque enumeration; read-out: 50% Inhibitory Concentration, Cytotoxicity (HFF)
Description: (§1) KB cells (available from the American Type Culture Collection (ATCC) 12301 Parklawn Drive, […], Md. 20852 (ATCC CCL 17)), an established human cell line derived from an epidermal oral carcinoma, were grown in minimal essential medium (MEM) (Sigma) with Hanks salts (MEM(H)) supplemented with 5% fetal calf serum. Human foreskin fibroblasts (HFF cells) (provided by the University of Michigan Hospital) and African green monkey kidney cells (BSC-1) (ATTC CCL 26) cells were grown in MEM with Earl salts (MEM(E)) supplemented with 10% fetal bovine serum. Cells were passaged according to conventional procedures and as described in Shipman, C., Jr. et al. (1976) Antimicrob. Agents Chemother. Vol. 9:120 and incorporated herein by reference. Briefly, cells were passaged at 1:2 to 1:10 dilutions according to conventional procedures by using 0.05% trypsin plus 0.02% EDTA in a HEPES buffered salt solution. HFF cells were passaged only at 1:2 dilutions.
(§2) Two different methods were used to evaluate cytotoxicity of the compounds. First, cytotoxicity produced in stationary HFF cells was determined by microscopical examination of cells not affected by the virus used in the plaque assay. Second the effect of compounds on KB cells during two population doubling times was determined by crystal violet staining and spectrophotometric quantitation of dye eluted from stained cells. This method has been utilized for the analysis of ganciclovir and zidovudine (See Prichard, M. N. et al. Antiviral Res. (1991) Vol. 35:1060-1065).
(§3) (3) Visual cytotoxicity was scored on HFF cells at the time of HCMV plaque enumeration. Inhibition of KB cell growth was determined as described in the experimental. 3L was used as a positive control for the KB cytotoxicity assay.

KB cells = experiment: Inhibition of KB cell growth (crystal violet staining); type: cell-based, human; settings: for pIC50: inhibition of KB cell growth, read-out: 50% Inhibitory Concentration, Cytotoxicity (KB)
Description: as §1, §2, §3

HCMV = HCMV plaque (focus) reduction assay in HFF cells; type: cell-based, HCMV (Towne strain); settings: for pIC50: HCMV plaque assay, HFF cells, averages from two or more experiments, read-out: 50% Inhibitory Concentration, Antiviral Activity (plaque)
Description: (§4) A plaque purified isolate, Po, of the Towne strain of HCMV was used in all experiments and was a gift of Dr. Mark Stinski, University of Iowa. The KOS strain of HSV-1 was used and was provided by Dr. Sandra K. Weller, University of Connecticut. Stock preparations of HCMV and HSV-1 were prepared and titered as known to those of skill and the art and described in Turk, S. R. et al. (1987) Antimicrob. Agents Chemother. Vol. 31:544-550 and Shipman, C., Jr., et al. (1990) J. Virol. Methods Vol. 28:101-106, each incorporated herein by reference.
(§5) HCMV plaque reduction experiments were performed with monolayer cultures of HFF cells by a procedure similar to that referenced above for titration of the viruses and described in Devivar, R. V. et al. (1994) J. Med. Chem. Vol. 37:2942-2949. Activity of compounds against HSV-1 was evaluated using an ELISA assay.
The effect of compounds of the replication of HCMV was measured using a plaque (focus) reduction assay. For the former, HFF cells in 24-well culture dishes were infected with approximately 50 p.f.u. of HCMV per well using the procedures detailed above. Compounds dissolved in growth medium were added in four to six selected concentrations to duplicate wells following virus adsorption. Following incubation at 37° C. for 7 to 10 days, cell sheets were fixed, stained and microscopic plaques were enumerated as described above. Drug effects were calculated as a percentage of reduction in number of plaques in the presence of each drug concentration compared to the number observed in the absence of drug. DHPG (ganciclovir) was used as a positive control in all experiments.
(§6) Dose-response relationships can be used to compare drug effects. These are constructed by linearly regressing the percent inhibition of parameters derived in the preceding sections against log drug concentrations. The 50 inhibitory (I50) concentrations were calculated from the regression lines using the methods described by Goldstein. See Goldstein, A., Biostatistics: An Introductory Text, MacMillan, New York, pp. 156-161 (1964), incorporated herein by reference.
(§7) (2) A plaque assay was used to quantitate anti HCMV activity, an ELISA assay was used to quantitate activity against HSV-1. DHPG (ganciclovir) was used as a positive control for the HCMV assay.

HSV-1 = HSV-1 ELISA assay; type: cell-based, HSV-1 (KOS strain); settings: read-out: 50% Inhibitory Concentration, Antiviral Activity (ELISA)
Description: as §4, §5
ELISA techniques according to standard procedures were also used to determine activity against HSV-1. Drug effects were calculated as a percentage of the reduction in virus titers in the presence of each drug concentration compared to the titer obtained in the absence of drug. Ganciclovir was used as a positive control in all experiments.
as §6, §7

L1210 cells = experiment: Antiproliferative activity: growth of L1210 cells; type: cell-based, mouse; settings: concentration required to decrease final growth rate of L1210 cells to half of control rate; read-out: 50% Inhibitory Concentration, Antiproliferative Activity
Description: Antiproliferative activity was evaluated by measuring the effect of the compounds on the growth of L1210 cells, a mouse leukemia cell line which is generally available and can be obtained from Cancer Chemotherapy Center, Japanese Foundation for Cancer Research. Antiproliferative activity was measured using conventional procedures and as described in Wotring, L. L. and Townsend, L. B., (1979) Cancer Res. Vol. 39:3018-3023 and Cory, A. H. et al. (1991) Cancer Comm. Vol. 3:207-212, each incorporated herein by reference.
(8) The concentration required to decrease the final growth rate of L1210 cells to half of the control rate. All values are averages from two or more experiments.

[1] = Visual cytotoxicity in stationary HFF cells at time of plaque enumeration; type: cell-based, human; settings: human, stationary human foreskin fibroblasts (HFF cells); visual cytotoxicity on HFF cells at time of HCMV plaque enumeration; read-out: 50% Inhibitory Concentration, Cytotoxicity (HFF)
Description: as §1, §2, §3

[2] = Inhibition of KB cell growth (crystal violet staining); type: cell-based, human; settings: human, KB cells (human epidermal oral carcinoma line); inhibition of KB cell growth; read-out: 50% Inhibitory Concentration, Cytotoxicity (KB)
Description: as §1, §2, §3

[3] = averages from two or more experiments
[4] = Human alphaherpesvirus 1, averages from two or more experiments

pIC50 (HSV-1; [4])	pIC50 (HCMV; Human betaherpesvirus 5, HFF)	SMILES	pIC50 (HFF cells)	pIC50 (KB cells)	pIC50 (HCMV)	pIC50 (HSV-1; [3])	anti-HCMV activity (in words) (HCMV; Table 1)	pIC50 (L1210 cells)	cytotoxicity in growing KB cells (in words) (KB cells)	pIC50 [1]	IC50 at 2 population doubling times [2] [µM]
–	–	CC(=O)O[C@@H]1[C@H](OC(C)=O)[C@@H](CN=[N+]=[N-])O[C@H]1n1c(Cl)nc2cc(Cl)c(Cl)cc21 [Compound 16a, 2,5,6-trichloro-1-(2′,3′-di-O-acetyl-5′-deoxy-5′-azido-β-D-ribofuranosyl)benzimidazole]	4.49	4.15	5.82	< 4.00	–	–	–	–	–
–	–	CC1(C)O[C@@H]2[C@H](O1)[C@@H](CCl)O[C@H]2n1c(Cl)nc2cc(Cl)c(Cl)cc21 [Compound 19b, 2,5,6-Trichloro-1-(2′,3′-O-isopropylidene-5′-deoxy-5′-chloro-β-D-ribofuranosyl) benzimidazole]	4.18	4.00	4.87	< 4.00	–	–	–	–	–
–	–	CSC[C@H]1O[C@@H](n2c(Cl)nc3cc(Cl)c(Cl)cc32)[C@H](OC(C)=O)[C@@H]1OC(C)=O [Compound 16b, 2,5,6-trichloro-1-(2′,3′-di-O-acetyl-5′-deoxy-5′-methylthio-β-D-ribofuranosyl) benzimidazole]	4.49	< 4.00	5.32	< 4.00	–	–	–	–	–
–	–	CSC[C@H]1O[C@@H](n2c(Cl)nc3cc(Cl)c(Cl)cc32)[C@H](O)[C@@H]1O [Compound 17b, 2,5,6-trichloro-1-(5′-deoxy-5′-methylthio-β-D-ribofuranosyl)benzimidazole]	4.49	< 4.00	5.35	< 4.00	equally active as the 5′-O-ethyl derivative (8b)	< 4.00	–	–	–
–	–	[N-]=[N+]=NC[C@H]1O[C@@H](n2c(Cl)nc3cc(Cl)c(Cl)cc32)[C@H](O)[C@@H]1O [Compound 17a, 2,5,6-trichloro-1-(5′-deoxy-5′-azido-β-D-ribofuranosyl)benzimidazole]	4.49	4.15	5.82	< 4.00	–	4.10	–	–	–
–	–	CC(=O)O[C@@H]1[C@H](OC(C)=O)[C@@H](CF)O[C@H]1n1c(Cl)nc2cc(Cl)c(Cl)cc21 [Compound 12a, 2,5,6-trichloro-1-(2′,3′-di-O-acetyl-5′-deoxy-5′-fluoro-β-D-ribofuranosyl)benzimidazole]	4.49	4.00	6.22	< 4.00	–	–	little or no cytoxicity	–	–
–	–	O[C@@H]1[C@H](O)[C@@H](CBr)O[C@H]1n1c(Cl)nc2cc(Cl)c(Cl)cc21 [Compound 13c, 2,5,6-trichloro-1-(5′-deoxy-5′-bromo-β-D-ribofuranosyl)benzimidazole]	4.49	4.05	5.82	< 4.00	–	–	–	–	–
5.46	–	Nc1nc(O)c2ncn(COC(CO)CO)c2n1 [DHPG, ganciclovir, reference compound]	–	–	–	–	–	–	–	< 4.00	> 100
–	–	CC(=O)O[C@@H]1[C@H](OC(C)=O)[C@@H](CBr)O[C@H]1n1c(Cl)nc2cc(Cl)c(Cl)cc21 [Compound 12c, 2,5,6-trichloro-1-(2′,3′-di-O-acetyl-5′-deoxy-5′-bromo-β-D-ribofuranosyl)benzimidazole]	4.49	4.22	5.57	< 4.00	–	–	–	–	–
–	–	CC1(C)O[C@@H]2[C@H](O1)[C@@H](CO)O[C@H]2n1c(Cl)nc2cc(Cl)c(Cl)cc21 [Compound 18, 2,5,6-Trichloro-1-(2′,3′-O-isopropylidene-β-D-ribofuranosyl)benzimidazole]	< 4.00	–	4.91	–	–	–	–	–	–
–	–	CC(=O)O[C@@H]1[C@H](OC(C)=O)[C@@H](CCl)O[C@H]1n1c(Cl)nc2cc(Cl)c(Cl)cc21 [Compound 12b, 2,5,6-trichloro-1-(2′,3′-di-O-acetyl-5′-deoxy-5′-chloro-β-D-ribofuranosyl)benzimidazole]	4.49	4.05	5.85	< 4.00	–	–	–	–	–
< 4.00	5.56	OC[C@H]1O[C@@H](n2c(Cl)nc3cc(Cl)c(Cl)cc32)[C@H](O)[C@@H]1O [Compound 1, 2,5,6-trichloro-1-(β-D-ribofuranosyl)benzimidazole, reference compound]	–	–	–	–	–	–	–	3.62	210
–	–	CC1(C)OC2C(CN=[N+]=[N-])OC(n3c(Cl)nc4cc(Cl)c(Cl)cc43)C2O1 [Compound 19a, 2,5,6-Trichloro-1-(2′,3′-O-isopropylidene-5′-deoxy-5′-azido-β-D-ribofuranosyl) benzimidazole]	4.49	–	4.96	–	–	–	–	–	–
–	–	O[C@@H]1[C@H](O)[C@@H](CI)O[C@H]1n1c(Cl)nc2cc(Cl)c(Cl)cc21 [Compound 13d, 2,5,6-trichloro-1-(5′-deoxy-5′-iodo-β-D-ribofuranosyl)benzimidazole]	4.49	–	5.49	–	–	–	–	–	–
–	–	O[C@@H]1[C@H](O)[C@@H](CCl)O[C@H]1n1c(Cl)nc2cc(Cl)c(Cl)cc21 [Compound 13b, 2,5,6-trichloro-1-(5′-deoxy-5′-chloro-β-D-ribofuranosyl)benzimidazole]	4.49	4.05	6.00	< 4.00	–	< 4.00	–	–	–
–	–	CC(=O)O[C@@H]1[C@H](OC(C)=O)[C@@H](CI)O[C@H]1n1c(Cl)nc2cc(Cl)c(Cl)cc21 [Compound 12d, 2,5,6-trichloro-1-(2′,3′-di-O-acetyl-5′-deoxy-5′-iodo-β-D-ribofuranosyl)benzimidazole]	4.49	4.22	5.60	< 4.00	–	–	–	–	–
